According to PubChem BioAssay AID256 (DTP/NCI, 2004):
“And” between values parts separate entries of the source, which are not always exact repeats. Equal values may be shown once. Inconclusive results and toxic doses are left out. How the source made its calls: active means survival T/C of 150% or more; inactive means T/C below 125% in these data.

Test system: CD2F1 mice, L1210 leukemia ip, survival T/C
Experiment: NCI In Vivo Anticancer Drug Screen. Data for tumor model L1210 Leukemia (intraperitoneal) in CD2F1 (CDF1) mice
Settings: endpoint: mean survival time, higher = longer survival
Procedure, shortened: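 Transplantable tumor in mice; compound-treated vs vehicle-treated groups. Read-out = treated/control ratio of the measured endpoint.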

[1] = dose: 100.0 mg/kg/injection, schedule: Q04DX003 (ip), vehicle: saline with Tween-80
[2] = dose: 200.0 mg/kg/injection, schedule: Q04DX003 (ip), vehicle: saline with Tween-80
[3] = dose: 400.0 mg/kg/injection, schedule: Q04DX003 (ip), vehicle: saline with Tween-80
[4] = dose: 100.0 mg/kg/injection, schedule: Q01DX009 (ip), vehicle: saline with Tween-80
[5] = dose: 200.0 mg/kg/injection, schedule: Q01DX009 (ip), vehicle: saline with Tween-80
[6] = dose: 75.0 mg/kg/injection, schedule: Q01DX001 (ip), vehicle: saline
[7] = dose: 150.0 mg/kg/injection, schedule: Q01DX001 (ip), vehicle: saline
[8] = dose: 100.0 mg/kg/injection, schedule: Q01DX009 (ip), vehicle: saline
[9] = dose: 200.0 mg/kg/injection, schedule: Q01DX009 (ip), vehicle: saline
[10] = dose: 400.0 mg/kg/injection, schedule: Q01DX009 (ip), vehicle: saline with Tween-80
[11] = dose: 50.0 mg/kg/injection, schedule: Q01DX009 (ip), vehicle: saline
[12] = dose: 100.0 mg/kg/injection, schedule: Q04DX002 (ip), vehicle: saline with Tween-80
[13] = dose: 200.0 mg/kg/injection, schedule: Q04DX002 (ip), vehicle: saline with Tween-80
[14] = dose: 400.0 mg/kg/injection, schedule: Q04DX002 (ip), vehicle: saline with Tween-80

Measured: T/C

O=C(OCc1ccccc1)C(Cl)(Cl)Cl
inactive: [1] 107 % of control | [2] 103 % of control | [3] 96 % of control

CCOC(=O)C(CCCCC(NC(C)=O)(C(=O)OCC)C(=O)OCC)(NC(C)=O)C(=O)OCC
inactive: [1] 98 % of control | [2] 92 % of control | [3] 92 % of control

C=CCOc1c(C)cc(C)cc1/C=C/C
inactive: [4] 94 % of control | [5] 89 % of control

c1ccc2c(-c3cnc(-c4ccc(-c5ncc(-c6cccc7ccccc67)o5)cc4)o3)cccc2c1
inactive: [6] 100 % of control | [7] 102 % of control | dose: 300.0 mg/kg/injection, schedule: Q01DX001 (ip), vehicle: saline 97 % of control

N#CC(/C=C/c1ccccc1)Nc1ccccc1CO (stereo unspecified)
inactive: [1] 97 % of control | [2] 105 % of control | [3] 117 % of control

O=C(CCO)CC(=O)CCc1ccccc1Cl
inactive: [1] 97 % of control | [2] 103 % of control | [3] 91 % of control

CCCCCCC(Sc1nn(C2OC(COC(=O)c3ccccc3)C(OC(=O)c3ccccc3)C2OC(=O)c2ccccc2)c(=O)[nH]c1=O)C(=O)OCC (stereo unspecified)
inactive: dose: 12.5 mg/kg/injection, schedule: Q01DX005 (ip), vehicle: distilled water + Tween-80 100 % of control | dose: 25.0 mg/kg/injection, schedule: Q01DX005 (ip), vehicle: distilled water + Tween-80 100 % of control | dose: 50.0 mg/kg/injection, schedule: Q01DX005 (ip), vehicle: distilled water + Tween-80 94 % of control | dose: 100.0 mg/kg/injection, schedule: Q01DX005 (ip), vehicle: distilled water + Tween-80 95 % of control | dose: 200.0 mg/kg/injection, schedule: Q01DX005 (ip), vehicle: distilled water + Tween-80 94 % of control

CC(C)C(=O)C(C)(C)C(=O)N1CCCC1
inactive: [8] 92 % of control | [9] 103 % of control | dose: 400.0 mg/kg/injection, schedule: Q01DX009 (ip), vehicle: saline 91 % of control

O=C(O)C1CCC(=O)N1C(=O)OCc1ccccc1 (stereo unspecified)
inactive: [4] 95 % of control | [5] 92 % of control | [10] 90 % of control

O=S(=O)(O)SCC1NCCCN1
inactive: dose: 12.5 mg/kg/injection, schedule: Q04DX002 (ip), vehicle: saline 108 % of control | dose: 25.0 mg/kg/injection, schedule: Q04DX002 (ip), vehicle: saline 101 % of control | dose: 50.0 mg/kg/injection, schedule: Q04DX002 (ip), vehicle: saline 101 % of control

COC(=O)/C=C/c1ccc([N+](=O)[O-])cc1
inactive: [4] 100 % of control | [5] 100 % of control | [10] 105 % of control

C=CCOCC(O)CNCCCC (stereo unspecified)
inactive: dose: 12.5 mg/kg/injection, schedule: Q01DX009 (ip), vehicle: saline 96 % of control | dose: 25.0 mg/kg/injection, schedule: Q01DX009 (ip), vehicle: saline 107 % of control | [11] 96 % of control and 111 % of control

CCCCCCCC/C=C/CCCCCCCC1=NCCN1CCO
inactive: [12] 95 % of control | [13] 103 % of control | [14] 100 % of control

COC(=O)c1ccc(SSc2ccc(C(=O)OC)cc2[N+](=O)[O-])c([N+](=O)[O-])c1
inactive: [1] 103 % of control | [2] 96 % of control | [3] 96 % of control

C=CCC1CN(CCC(O)c2ccc(F)cc2)CCC1(OC(=O)CC)c1ccccc1 (stereo unspecified)
inactive: dose: 100.0 mg/kg/injection, schedule: Q04DX002 (ip), vehicle: Klucel (hydroxypropylcellulose) (HPC) 93 % of control | dose: 200.0 mg/kg/injection, schedule: Q04DX002 (ip), vehicle: Klucel (hydroxypropylcellulose) (HPC) 101 % of control | dose: 400.0 mg/kg/injection, schedule: Q04DX002 (ip), vehicle: Klucel (hydroxypropylcellulose) (HPC) 104 % of control

C=CC[n+]1ccccc1/C=C\c1ccc(N(C)C)cc1
inactive: [6] 118 % of control

O=[N+]([O-])c1ccc(N=Nc2ccccc2)cc1
inactive: [1] 90 % of control | [2] 92 % of control | [3] 92 % of control

Cc1ccccc1C(C)NC1=NCCO1 (stereo unspecified)
inactive: dose: 6.25 mg/kg/injection, schedule: Q01DX009 (ip), vehicle: saline with Tween-80 90 % of control | dose: 6.25 mg/kg/injection, schedule: Q04DX003 (ip), vehicle: saline with Tween-80 96 % of control | dose: 12.5 mg/kg/injection, schedule: Q01DX009 (ip), vehicle: saline with Tween-80 96 % of control | dose: 12.5 mg/kg/injection, schedule: Q04DX003 (ip), vehicle: saline with Tween-80 95 % of control | dose: 25.0 mg/kg/injection, schedule: Q01DX009 (ip), vehicle: saline with Tween-80 97 % of control | dose: 25.0 mg/kg/injection, schedule: Q04DX003 (ip), vehicle: saline with Tween-80 93 % of control

Cc1nc2nc(N)[nH]c(=O)c2nc1C
inactive: dose: 100.0 mg/kg/injection, schedule: Q01DX001 (ip), vehicle: saline with Tween-80 95 % of control | dose: 200.0 mg/kg/injection, schedule: Q01DX001 (ip), vehicle: saline with Tween-80 98 % of control | dose: 400.0 mg/kg/injection, schedule: Q01DX001 (ip), vehicle: saline with Tween-80 90 % of control

CC(=O)OC1CC2(O)C(CCC3(C)C(c4ccc(=O)oc4)CCC32O)C2(C)C1=CC(O)C1OC12 (stereo unspecified)
inactive: dose: 0.13 mg/kg/injection, schedule: Q01DX009 (sc), vehicle: steriod suspending solution 100 % of control | dose: 0.25 mg/kg/injection, schedule: Q01DX009 (sc), vehicle: steriod suspending solution 97 % of control | dose: 0.5 mg/kg/injection, schedule: Q01DX009 (sc), vehicle: steriod suspending solution 100 % of control | dose: 1.0 mg/kg/injection, schedule: Q01DX009 (sc), vehicle: steriod suspending solution 89 % of control

CNCc1ccc([N+](=O)[O-])cc1
inactive: [11] 104 % of control | [8] 100 % of control | [9] 93 % of control

Cc1cc(SCc2ccccc2)cc(C)[o+]1
inactive: [6] 106 % of control | [7] 93 % of control

C=C(NC(=O)CN)C(=O)O
inactive: [12] 100 % of control | [13] 95 % of control | [14] 95 % of control

C/C=C(/CCCCC)C(=O)OCC
inactive: [4] 106 % of control | [5] 100 % of control | [10] 101 % of control

CC(=O)N1C(=O)C2(Nc3cccnc3N2)c2ccccc21 (stereo unspecified)
inactive: dose: 100.0 mg/kg/injection, schedule: Q04DX003 (ip), vehicle: saline sonified 97 % of control | dose: 200.0 mg/kg/injection, schedule: Q04DX003 (ip), vehicle: saline sonified 88 % of control | dose: 400.0 mg/kg/injection, schedule: Q04DX003 (ip), vehicle: saline sonified 103 % of control

CO[C@@]12[C@@H]3N[C@@H]3CN1C1=C(C(=O)C(NCCN3CCCC3)=C(C)C1=O)[C@@H]2COC(N)=O
inactive: dose: 0.31 mg/kg/injection, schedule: Q01DX005 (ip), vehicle: water 101 % of control | dose: 0.62 mg/kg/injection, schedule: Q01DX005 (ip), vehicle: water 101 % of control | dose: 1.25 mg/kg/injection, schedule: Q01DX005 (ip), vehicle: water 113 % of control | dose: 1.5 mg/kg/injection, schedule: Q01DX001 (ip), vehicle: water 100 % of control | dose: 2.5 mg/kg/injection, schedule: Q01DX005 (ip), vehicle: water 120 % of control and 122 % of control | dose: 3.0 mg/kg/injection, schedule: Q01DX001 (ip), vehicle: water 94 % of control | dose: 6.0 mg/kg/injection, schedule: Q01DX001 (ip), vehicle: water 115 % of control | dose: 12.0 mg/kg/injection, schedule: Q01DX001 (ip), vehicle: water 103 % of control

COc1cc2c(cc1OC)C1CCN3C(=O)CCC3[N+]1(C)CC2 (stereo unspecified)
inactive: [11] 93 % of control | [8] 98 % of control | dose: 100.0 mg/kg/injection, schedule: Q04DX003 (ip), vehicle: saline 98 % of control | dose: 200.0 mg/kg/injection, schedule: Q04DX003 (ip), vehicle: saline 96 % of control

CC(=O)NC1=CC(=O)C(C)=CC1=O
inactive: dose: 5.0 mg/kg/injection, schedule: Q01DX001 (ip), vehicle: saline 98 % of control | dose: 10.0 mg/kg/injection, schedule: Q01DX001 (ip), vehicle: saline 98 % of control
